Results on 12 compounds are retold here after patent publication US12590099B2, “Inhibitors of histone deacetylase useful for the treatment or prevention of HIV infection” (Merck Sharp & Dohme LLC, priority 2018, dated 2026).

Read-outs that look alike come from different tables or passages of the source. Bounds are passed on as bounds.

The target of assay [1] is T1, Recombinant human HDAC8 (Homo sapiens, UniProt Q9BY41).
T1 construct: purchased Enzo Life Sciences BML-SE145-0100
T1 sequence (Q9BY41 1-377): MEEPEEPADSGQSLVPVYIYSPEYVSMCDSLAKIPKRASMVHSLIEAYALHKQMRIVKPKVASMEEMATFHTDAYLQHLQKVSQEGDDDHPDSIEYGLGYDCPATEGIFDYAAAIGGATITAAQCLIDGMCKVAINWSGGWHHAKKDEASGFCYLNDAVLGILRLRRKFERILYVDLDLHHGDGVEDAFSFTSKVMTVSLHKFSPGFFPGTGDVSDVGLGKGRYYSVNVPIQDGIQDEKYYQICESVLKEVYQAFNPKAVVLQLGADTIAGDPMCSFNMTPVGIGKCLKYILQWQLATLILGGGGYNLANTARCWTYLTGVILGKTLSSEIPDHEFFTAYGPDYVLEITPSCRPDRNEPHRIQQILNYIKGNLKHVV
The experiment in a line: Human HDAC enzyme inhibitor Fluor-de-Lys assay, HDAC8. Format: biochemical. The following applies: recombinant human HDAC8, Fluor-de-Lys assay.

The test system of assay [2] is KARN cells (Jurkat 2C4). Nature of the assay: cells. Format: cell-based. To be noted: luciferase induction, 100% = 2 μM SAHA. The method, boiled down: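 Luminescence (Steady-Glo, 10 min, room temperature) measured next day in KARN Jurkat 2C4 cells given compounds at up to 40 μM final with 0.4% DMSO. Percent activation normalised to DMSO (0%) and 2 μM SAHA (100%), fitted by 4-parameter curve.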

The mark [3] stands for this setting: Homo sapiens, Jurkat, read-out: Karn EC50 (nM) 0.1% NHS, 0.1% normal human serum.
Setting [4] is: Homo sapiens, Jurkat, read-out: Karn EC50 (nM) 5% NHS, 5% normal human serum.

The term IC50 denotes the concentration that gives 50% inhibition. By EC50 is commonly meant the midpoint of the concentration-response curve. Turning to `CCCC(=O)CCCCC[C@H](N)c1ncc(-c2cc3ccc(C)nc3cc2OC)[nH]1` [Compound A30], the 50% inhibitory concentration (IC50) in assay [1] was determined as 0.542 µM. Besides, the values for the 50% effective concentration (EC50) in assay [2] (setting [3]) and in assay [2] (setting [4]) were 1490 nM and 5610 nM, respectively.

For `CCC(=O)CCCCC[C@H](NC(=O)C1=NOC2(CCN(C)CC2)C1)c1ncc(-c2cc3ccc(=O)n(C)c3cc2F)o1` [Compound 386], the IC50 in assay [1] was greater than 0.9 µM. In addition, the EC50 in assay [2] (setting [3]) worked out at 934 nM; in assay [2] (setting [4]) it was 1060 nM.

Consider `CCC(=O)CCCCC[C@H](NC(=O)C1=NOC2(CCN(C)CC2)C1)c1ncc(-c2ccc(-c3ccncc3)cc2OC)o1` [Compound 395], for which, in assay [1], the IC50 was greater than 0.9 µM. Besides, the EC50 in assay [2] (setting [3]) is 618 nM; in assay [2] (setting [4]), 725 nM.

Regarding `CCC(=O)CCCCC[C@H](NC(=O)C1CC12CCOCC2)c1ncc(-c2cc3ccc(C)nc3cc2OC)[nH]1` (single isomer, unassigned) [Compound 413], the 50% inhibitory concentration (IC50) in assay [1] was greater than 0.9 µM. Also, the half-maximal effective concentration (EC50) in assay [2] (read-out: Karn EC50 (nM) 0.1% NHS, 0.1% normal human serum) is 348 nM; in assay [2] (read-out: Karn EC50 (nM) 5% NHS, 5% normal human serum), 1270 nM.

Turning to `CCC(=O)CCCCC[C@H](NC(=O)C1=NOC2(CCN(S(C)(=O)=O)CC2)C1)c1nnc(-c2cc3ccccc3nc2OC)o1` [Compound 371], the half-inhibitory concentration (IC50) in assay [1] is greater than 45 µM. In addition, the EC50 in assay [2] (setting [3]) worked out at 5000 nM; in assay [2] (setting [4]) it was 6040 nM.

For the compound `CCCC(=O)CCCCC[C@H](NC(=O)[C@H]1CC12CCN(CC1CC1)CC2)c1ncc(-c2cc3ccc(C)nc3cc2OC)[nH]1` [Compound 416], the IC50 in assay [1] is greater than 0.9 µM. In addition, the concentration giving a half-maximal response (EC50) came out at 11 nM in assay [2] (setting [3]) and 15 nM in assay [2] (setting [4]).

Turning to `CCC(=O)CCCCC[C@H](NC(=O)[C@H]1CC[C@]2(CC1)OC(=O)c1ccncc12)c1ncc(-c2ccccc2)[nH]1` [Compound 376], in assay [1], the IC50 is 4.84 µM. Also, the results for the EC50 in assay [2] (setting [3]) and in assay [2] (setting [4]) were 1860 nM and 3680 nM, respectively.

Consider `CCC(=O)CCCCC[C@H](NC(=O)[C@H]1CC[C@]2(CC1)OC(=O)c1ncccc12)c1nnc(-c2cc3ccccc3nc2OC)o1` [Compound 367], for which the half-maximal inhibitory concentration (IC50) in assay [1] is 21.4 µM. Also, the EC50 in assay [2] (setting [3]) was determined as 1330 nM; in assay [2] (setting [4]), 4490 nM.

Take `CCC(=O)CCCCC[C@H](NC(=O)C1=NOC2(CCN(CC3CC3)CC2)C1)c1ncc(-c2cc3ccc(=O)n(C)c3cc2F)o1` [Compound 387]: the IC50 in assay [1] is greater than 0.9 µM. Besides, the 50% effective concentration (EC50) was determined as 1540 nM in assay [2] (setting [3]) and 1700 nM in assay [2] (setting [4]).

For the compound `CCC(=O)CCCCC[C@H](NC(=O)C1CC12CCOCC2)c1ncc(-c2cc3ccc(C)nc3cc2OC)o1` (single isomer, unassigned) [Compound 409], the IC50 in assay [1] was greater than 0.9 µM. Also, the concentration for a half-maximal effect (EC50) is 811 nM in assay [2] (setting [3]) and 1860 nM in assay [2] (setting [4]).

Take `CCC(=O)CCCCC[C@H](NC(=O)[C@H]1CC12CCN(CC1CC1)CC2)c1ncc(-c2cc3ccc(C)nc3cc2OC)o1` [Compound 422]: the IC50 in assay [1] was greater than 0.9 µM. Further, the EC50 in assay [2] (setting [3]) turned out to be 15 nM; in assay [2] (setting [4]) it was 10 nM.

Turning to `CCC(=O)CCCCC[C@H](NC(=O)C1=NOC2(CCN(C)CC2)C1)c1ncc(-c2ccccc2)[nH]1` [Compound 382], the IC50 in assay [1] was 6.64 µM. The EC50 in assay [2] (setting [3]) turned out to be 665 nM; in assay [2] (setting [4]), 1070 nM.
